Measured values as given in the supplement of paper PMC4862054.

Assays:
Test in all cases: normalised viability (% of control), CellTiter-Blue; higher = more viable cells (about 100 = DMSO control)
Details in all cases: incubation time: 72 h
BT-474 = test system: BT-474
Method in brief: (§1)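 Each value is normalised viability at a single listed concentration of the series. Breast cancer cell lines in 384-well plates were incubated 72 h with compound and read by CellTiter-Blue fluorescence at 560/590 nm, with vehicle set to 100 and a positive kill control to 0 on every plate.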

HDQ-P1 = test system: HDQ-P1
Method in brief: as §1

HCC1937 = test system: HCC1937
Method in brief: as §1

MDA-MB-436 = test system: MDA-MB-436
Method in brief: as §1

CAL-51 = test system: CAL-51
Method in brief: as §1

MFM-223 = test system: MFM-223
Method in brief: as §1

DU-4475 = test system: DU-4475
Method in brief: as §1

CAL-120 = test system: CAL-120
Method in brief: as §1

MDA-MB-231 = test system: MDA-MB-231
Method in brief: as §1

SK-BR-3 = test system: SK-BR-3
Method in brief: as §1

CAL-148 = test system: CAL-148
Method in brief: as §1

MDA-MB-468 = test system: MDA-MB-468
Method in brief: as §1

BT-549 = test system: BT-549
Method in brief: as §1

Hs578T = test system: Hs578T
Method in brief: as §1

MDA-MB-453 = test system: MDA-MB-453
Method in brief: as §1

HCC1599 = test system: HCC1599
Method in brief: as §1

CAL-85-1 = test system: CAL-85-1
Method in brief: as §1

HCC1143 = test system: HCC1143
Method in brief: as §1

Cc1cc(Nc2cc(CN3CCOCC3)c3nc(C)c(Cc4ccc(Cl)cc4F)n3n2)n[nH]1
normalised viability [%]
Details	3 nM	10 nM	30 nM	100 nM	1000 nM	10000 nM
BT-474	–	109	–	–	96.6	49.7
BT-549	–	97.8	–	–	78.8	9.99
CAL-51	97.1	–	95.2	94.2	–	–
CAL-85-1	87.2	–	83.3	93.1	–	–
CAL-120	–	83.7	–	–	57.6	14.8
CAL-148	84.1	–	87.7	88.2	–	–
DU-4475	110	–	94.7	122	–	–
HCC1143	–	78.1	–	–	58.9	35.5
HCC1599	–	109	–	–	90.5	92
HCC1937	–	80.4	–	–	64.7	44
HDQ-P1	89.9	–	82	82.4	–	–
Hs578T	–	110	–	–	81.6	2.66
MDA-MB-231	–	102	–	–	83.6	18.7
MDA-MB-436	–	109	–	–	71.1	36.8
MDA-MB-453	90.4	–	101	82.8	–	–
MDA-MB-468	–	103	–	–	61.4	7.11
MFM-223	–	102	–	–	50.6	44.8
SK-BR-3	–	102	–	–	70.9	30.5

CN(C)c1nc(N(C)C)nc(N(C)C)n1 [Altretamine]
normalised viability [%]
Details	3 nM	10 nM	30 nM	100 nM	1000 nM	10000 nM
BT-474	–	117	–	–	134	138
BT-549	–	89.3	–	–	78.4	93.4
CAL-51	113	–	108	105	–	–
CAL-85-1	105	–	91.5	119	–	–
CAL-120	–	88.6	–	–	98.5	105
CAL-148	99.5	–	96.7	104	–	–
DU-4475	94.6	–	83.6	105	–	–
HCC1143	–	74.7	–	–	88.4	91.2
HCC1599	–	95.7	–	–	98.2	73.5
HCC1937	–	100	–	–	96.3	88.6
HDQ-P1	107	–	92.7	112	–	–
Hs578T	–	107	–	–	96.9	102
MDA-MB-231	–	99.7	–	–	90.9	106
MDA-MB-436	–	102	–	–	99.5	85.5
MDA-MB-453	119	–	99.5	97.4	–	–
MDA-MB-468	–	94.5	–	–	104	103
MFM-223	–	96.2	–	–	98	89.6
SK-BR-3	–	106	–	–	113	100

COC(=O)c1ccc2c(c1)NC(=O)/C2=C(\Nc1ccc(N(C)C(=O)CN2CCN(C)CC2)cc1)c1ccccc1 [BIBF 1120]
normalised viability [%]
Details	3 nM	10 nM	30 nM	100 nM	1000 nM	10000 nM
BT-474	–	127	–	–	92.5	58.6
BT-549	–	105	–	–	111	16.4
CAL-51	104	–	96.3	100	–	–
CAL-85-1	97.1	–	98.3	99.6	–	–
CAL-120	–	82.6	–	–	75.5	29.7
CAL-148	93.5	–	99	97.7	–	–
DU-4475	94.6	–	100	91	–	–
HCC1143	–	91	–	–	103	56.7
HCC1599	–	90.9	–	–	95.9	65.1
HCC1937	–	144	–	–	130	84
HDQ-P1	124	–	117	124	–	–
Hs578T	–	102	–	–	111	34
MDA-MB-231	–	97.6	–	–	120	2.46
MDA-MB-436	–	120	–	–	122	43.8
MDA-MB-453	112	–	101	104	–	–
MDA-MB-468	–	108	–	–	112	17.6
MFM-223	–	99.5	–	–	57	36.6
SK-BR-3	–	101	–	–	91.8	42.8

Nc1cc(C(F)(F)F)c(-c2cc(N3CCOCC3)nc(N3CCOCC3)n2)cn1 [BKM-120]
normalised viability [%]
Details	3 nM	10 nM	30 nM	100 nM	1000 nM	10000 nM
BT-474	–	129	–	–	64.3	11.1
BT-549	–	78.3	–	–	62.5	10.8
CAL-51	100	–	92.1	84.3	–	–
CAL-85-1	95.8	–	80.2	92	–	–
CAL-120	–	81.1	–	–	54.5	13.5
CAL-148	94.3	–	104	98.7	–	–
DU-4475	104	–	93.3	101	–	–
HCC1143	–	81.4	–	–	72.8	20.8
HCC1599	–	92.8	–	–	63.6	32.7
HCC1937	–	121	–	–	87.9	13.7
HDQ-P1	97.8	–	107	97.7	–	–
Hs578T	–	114	–	–	88.7	9.62
MDA-MB-231	–	94.2	–	–	69.1	15.3
MDA-MB-436	–	82.4	–	–	93.8	16.5
MDA-MB-453	111	–	114	96.7	–	–
MDA-MB-468	–	97.7	–	–	78.7	15.3
MFM-223	–	92.2	–	–	60.2	14.5
SK-BR-3	–	101	–	–	24.4	9.47

O=P1(N(CCCl)CCCl)NCCCO1 (stereo unspecified) [Cyclophosphamide]
normalised viability [%]
Details	12 nM	40 nM	120 nM	400 nM	4000 nM	40000 nM
BT-474	–	121	–	–	119	127
BT-549	–	94.3	–	–	94.9	95.2
CAL-51	111	–	99	111	–	–
CAL-85-1	98.8	–	89.9	97.5	–	–
CAL-120	–	97.1	–	–	95.7	83.8
CAL-148	100	–	102	109	–	–
DU-4475	110	–	90.9	113	–	–
HCC1143	–	84.1	–	–	93.6	87.3
HCC1599	–	89.4	–	–	78	91.5
HCC1937	–	98.3	–	–	111	98.5
HDQ-P1	119	–	109	104	–	–
Hs578T	–	107	–	–	108	112
MDA-MB-231	–	101	–	–	96.9	96.9
MDA-MB-436	–	108	–	–	83.7	83.9
MDA-MB-453	105	–	105	111	–	–
MDA-MB-468	–	102	–	–	100	106
MFM-223	–	92.1	–	–	98.9	98.5
SK-BR-3	–	105	–	–	102	110

C=C1C[C@@H]2[C@H](CC[C@]3(C)C(=O)CC[C@@H]23)[C@@]2(C)C=CC(=O)C=C12 [Exemestane]
normalised viability [%]
Details	3 nM	10 nM	30 nM	100 nM	1000 nM	10000 nM
BT-474	–	111	–	–	93.7	103
BT-549	–	83.5	–	–	108	85.9
CAL-51	101	–	95.8	86.5	–	–
CAL-85-1	90.6	–	81.8	89.8	–	–
CAL-120	–	96.1	–	–	92.7	84
CAL-148	95.1	–	88.7	87	–	–
DU-4475	95.1	–	98	79.4	–	–
HCC1143	–	88.7	–	–	97.8	82.8
HCC1599	–	81.7	–	–	86.6	77
HCC1937	–	87.7	–	–	88.3	87.8
HDQ-P1	94.5	–	98.5	97.1	–	–
Hs578T	–	112	–	–	110	100
MDA-MB-231	–	101	–	–	98.1	124
MDA-MB-436	–	112	–	–	87.4	96.2
MDA-MB-453	103	–	87.3	97.8	–	–
MDA-MB-468	–	109	–	–	112	96.5
MFM-223	–	90.6	–	–	101	108
SK-BR-3	–	85.2	–	–	101	79.3

Oc1ccc2c(c1)CC[C@H](c1ccccc1)[C@@H]2c1ccc(OCCN2CCCC2)cc1 [Lasofoxifene]
normalised viability [%]
Details	0.3 nM	1 nM	3 nM	10 nM	100 nM	1000 nM
BT-474	–	122	–	–	114	110
BT-549	–	88.1	–	–	83.2	90.3
CAL-51	100	–	97.9	92.6	–	–
CAL-85-1	83.5	–	82.5	93	–	–
CAL-120	–	77.6	–	–	87.8	95.8
CAL-148	95.9	–	104	102	–	–
DU-4475	93.6	–	91.9	88.8	–	–
HCC1143	–	86	–	–	104	95.6
HCC1599	–	96	–	–	81.4	103
HCC1937	–	88.6	–	–	109	121
HDQ-P1	97.7	–	114	101	–	–
Hs578T	–	108	–	–	103	118
MDA-MB-231	–	93.1	–	–	95.2	95.3
MDA-MB-436	–	95.5	–	–	84.3	101
MDA-MB-453	115	–	98.3	98.9	–	–
MDA-MB-468	–	95	–	–	95.8	94.4
MFM-223	–	83.5	–	–	84	89.7
SK-BR-3	–	108	–	–	98.4	101

COCC1(CO)C(=O)C2CCN1CC2 (stereo unspecified) [Prima-1 Met]
normalised viability [%]
Details	3 nM	10 nM	30 nM	100 nM	1000 nM	10000 nM
BT-474	–	109	–	–	98.5	40.4
BT-549	–	105	–	–	87.8	109
CAL-51	93.7	–	93.2	96.4	–	–
CAL-85-1	91.3	–	78.1	103	–	–
CAL-120	–	85	–	–	99.8	102
CAL-148	93.3	–	93	89.2	–	–
DU-4475	109	–	88.4	122	–	–
HCC1143	–	82.3	–	–	73.2	75.2
HCC1599	–	93.4	–	–	120	106
HCC1937	–	97.8	–	–	73.8	75.4
HDQ-P1	91.3	–	81.2	74.4	–	–
Hs578T	–	110	–	–	106	88.9
MDA-MB-231	–	95.4	–	–	92.7	88.7
MDA-MB-436	–	86.9	–	–	81.9	104
MDA-MB-453	95.4	–	107	98	–	–
MDA-MB-468	–	104	–	–	115	104
MFM-223	–	103	–	–	91.3	111
SK-BR-3	–	96.1	–	–	101	90.8

S=P(N1CC1)(N1CC1)N1CC1 [Thio-TEPA]
normalised viability [%]
Details	30 nM	100 nM	300 nM	1000 nM	10000 nM	100000 nM
BT-474	–	119	–	–	114	115
BT-549	–	95.2	–	–	119	116
CAL-51	95.4	–	97.1	97.4	–	–
CAL-85-1	99.9	–	96.4	102	–	–
CAL-120	–	90.7	–	–	86.8	93.7
CAL-148	93.8	–	92.7	105	–	–
DU-4475	97.2	–	98.7	91.8	–	–
HCC1143	–	109	–	–	95.9	81.7
HCC1599	–	97.8	–	–	82.7	94.7
HCC1937	–	102	–	–	93.4	83.6
HDQ-P1	111	–	115	104	–	–
Hs578T	–	115	–	–	95.6	109
MDA-MB-231	–	103	–	–	83.2	64.4
MDA-MB-436	–	110	–	–	87.7	123
MDA-MB-453	111	–	113	104	–	–
MDA-MB-468	–	104	–	–	107	95.3
MFM-223	–	105	–	–	106	104
SK-BR-3	–	102	–	–	99.3	97.1
